Values of other authors in patent US10716959B2, “Polymer-flavonoid conjugates and hydrogels for biomedical applications” (AGENCY FOR SCIENCE, TECHNOLOGY AND RESEARCH, priority 2013, dated 2020).

Settings: physiological temperature and pH

For O=C(O[C@@H]1Cc2c(O)cc(O)cc2O[C@@H]1c1cc(O)c(O)c(O)c1)c1cc(O)c(O)c(O)c1 [EGCG, (−)-epigallocatechin-3-gallate], the half-life is listed as “less than 30 min”.
